Experimental data taken from patent US20210094899A1, “ACRYLIC ACID ANALOGS” (Recurium IP Holdings, LLC, priority 2017, published 2021).

Assays:
[1] = system: MCF7 cells; test: Breast cancer cell proliferation assay (MCF-7), Cell Titer-Glo; type: cell-based; conditions: Homo sapiens, 120 h, 5 days of compound exposure
Procedure: Breast Cancer Cell Proliferation Assay (MCF-7)
MCF7 cells were expanded and maintained in DMEM (Hyclone SH30272.01, Phenol red free) with NEAA (Gibco11140-050), Na-pyruvate (Gibco 11360-070) and Re-stripped Charcoal stripped FBS (Gemini 100-119)). The cells were adjusted to a concentration of 3,000 cells per mL and incubated (37° C., 5% CO2). The following day a 10 point, serial dilution of compounds was added to the cells at a final concentration ranging from 10 μM to 0.000005 μM for test compounds (17β-estradiol was used as a control). Additional cells were plated in 30 wells to serve as the day 1 (pretreatment) comparison. After 5 days of compound exposure, Cell Titer-Glo reagent was added to the cells and the relative luminescence units (RLUs) of each well was determined Cell Titer-Glo was also added to 32 μL of medium without cells to obtain a background value. The plates were allowed to incubate at room temperature for 10 minutes to stabilize luminescent signal and the luminescence signal was recorded with EnSpire. The relative increase in cell number of each sample is determined as follows: (RLU sample-RLU background/RLU estrogen only treated cells-RLU background)×100=[…].

[2] = biological target: T1, ESR1 protein (estrogen receptor alpha) (Homo sapiens, UniProt P03372); test: ER degradation determination by Western blot in MCF-7 cells; type: cell-based; conditions: 10 μM, 18-24 hours
T1 construct: After incubating cells with the indicated compounds for 18-24 hours, cell lysates were prepared; endogenous in cells; host or cells: MCF-7
T1 sequence (P03372 1-595): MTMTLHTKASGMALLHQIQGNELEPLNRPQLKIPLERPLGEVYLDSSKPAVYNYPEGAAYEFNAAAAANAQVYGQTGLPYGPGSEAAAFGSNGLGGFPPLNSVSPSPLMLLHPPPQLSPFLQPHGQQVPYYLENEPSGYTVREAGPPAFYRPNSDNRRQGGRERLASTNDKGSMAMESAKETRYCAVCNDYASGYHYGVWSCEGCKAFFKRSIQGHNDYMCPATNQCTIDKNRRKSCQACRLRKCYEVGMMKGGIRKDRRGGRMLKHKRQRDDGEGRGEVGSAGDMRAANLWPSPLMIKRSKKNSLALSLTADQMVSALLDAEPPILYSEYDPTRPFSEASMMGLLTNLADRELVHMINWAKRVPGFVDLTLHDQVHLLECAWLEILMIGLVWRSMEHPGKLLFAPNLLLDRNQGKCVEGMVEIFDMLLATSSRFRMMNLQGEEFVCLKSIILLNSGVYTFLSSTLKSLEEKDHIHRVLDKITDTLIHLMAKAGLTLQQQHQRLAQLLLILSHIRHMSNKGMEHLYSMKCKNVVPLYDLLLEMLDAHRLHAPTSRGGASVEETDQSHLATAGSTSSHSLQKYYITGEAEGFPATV
Procedure: ER Degradation Determination by Western Blot
MCF-7 cells were plated at 0.3 million cells/mL (3 mL/well) in 6-well plates in experiment media and incubated at 37° C., 5% CO2 for 48 hours. A 10× solution of compounds were made in DMSO and added the solution to the cells to achieve a final concentration of 10 μM. A DMSO control was included to enable a determination of the relative efficacy of test compounds. […] After incubating cells with the indicated compounds for 18-24 hours, cell lysates were prepared (2× Cell lysis buffer: 100 mM Tris, pH 8, 300 mM NaCl, 2% NP40, 1% Na deoxycholate, 0.04% SDS and 2 mM EDTA) and mixed thoroughly and incubated on ice. The protein concentration was quantified using BCA kit. […] The gel was then transferred onto a nitrocellulose membrane. […] GAPDH protein was used as an internal control.

[3] = Pharmacokinetic determination in mice; type: in vivo, female CD mice; conditions: mouse
Procedure: (§1) Pharmacokinetic Determination
(§2) Grouping female CD mice weighing 20-30 g or female SD rats weighing 200-300 g randomly to two groups; one group was administered with test compound at a dose of 3.0 mg/kg by intravenous injection, the other group was administered with test compound at a dose of 10.0 mg/kg orally. The formulation for IV groups were DMSO/PEG400/150 mM glycine (pH 9) (5/10/85) and the formulation for PO groups were PEG400/PVP/Tween 80/0.5% CMC in water (9/0.5/0.5/90). After administering, blood samples of intravenous injection group were collected at time points of predose, 0.0833, 0.25, 0.5, 1, 2, 4, 8, 12 and 24 h; blood samples of oral group were collected at time points of predose, 0.25, 0.5, 1, 2, 4, 8, 12, and 24 h. Standard curve was plotted based on concentrations of the samples in a suitable range, the concentrations of test compounds in plasma samples were determined by using LC-MS/MS. Pharmacokinetic parameters were calculated according to drug concentration-time curve using a noncompartmental method by WinNonLin (Phoenix™, version 6.1) or other similar software.

[4] = Pharmacokinetic determination in rats; type: in vivo, female SD rats; conditions: rat
Procedure: as §1, §2

[5] = biological target: T2, ERα (ESR1 protein) (Homo sapiens, UniProt P03372); test: ERα EC50 determination (Western blot band density, MCF-7 cells); type: cell-based; conditions: 18-24 hours, ERα degradation
T2 construct: After incubating cells with the indicated compounds for 18-24 hours, cell lysates were prepared; endogenous in cells; host or cells: MCF-7
T2 sequence (P03372 1-595): T1 sequence (P03372 1-595)
From the text: A DMSO control was included to enable a determination of the relative efficacy of test compounds. […] The protein concentration was quantified using BCA kit.

[6] = biological target: T3, estrogen receptor (Homo sapiens, UniProt P03372); conditions: 500 mg monthly dose; cited from earlier work
T3 sequence (P03372 1-595): T1 sequence (P03372 1-595)

[7] = female, CD, plasma, IV, 3.0 mg/kg
[8] = female, CD, plasma, PO, 10.0 mg/kg
[9] = female, SD, plasma, IV, 3.0 mg/kg
[10] = female, SD, plasma, PO, 10.0 mg/kg

CC/C(=C(/c1ccc(/C=C/C(=O)O)cc1)c1ccc2[nH]ncc2c1)c1ccc(F)cc1Cl [ARN810]
IC50 [1]: ≤ 25 nM

C[C@@H]1Cc2c([nH]c3ccccc23)[C@@H](c2c(F)cc(/C=C/C(=O)O)cc2F)N1CC(C)(C)F [AZD9496]
IC50 [1]: ≤ 25 nM
ERα % degradation [2]: A (ERα % degradation ≥ 80%)

CC/C(=C(\c1ccc(O)cc1)c1ccc(/C=C/C(=O)O)cc1)c1ccc(F)cc1Cl [Example 1, (E)-3-(4-((E)-2-(2-chloro-4-fluorophenyl)-1-(4-hydroxyphenyl)but-1-en-1-yl)phenyl)acrylic acid]
AUC(0-inf) [3, 7]: 2.4 µM·h
clearance [3, 7]: 49.6 mL/min/kg
half-life [3, 7]: 3.9 h
Vd ([3]; female, CD, plasma, IV, 3.0 mg/kg, read-out: Vdss): 6 L/kg
AUC(0-inf) [3, 8]: 7 µM·h
Cmax [3, 8]: 2.5 µM
Tmax [3, 8]: 0.25 h
half-life [3, 8]: 3.4 h
F ([3]; PO, 10.0 mg/kg): 88%
IC50 [1]: ≤ 25 nM
AUC(0-inf) [4, 9]: 6.3 µM·h
clearance [4, 9]: 19 mL/min/kg
half-life [4, 9]: 3.9 h
Vd ([4]; female, SD, plasma, IV, 3.0 mg/kg, read-out: Vdss): 2.9 L/kg
AUC(0-inf) [4, 10]: 11.1 µM·h
Cmax [4, 10]: 5.7 µM
Tmax [4, 10]: 0.5 h
half-life [4, 10]: 8 h
F ([4]; PO, 10.0 mg/kg): 53%
EC50 [5]: < 25 nM
ERα % degradation [2]: B (ERα % degradation < 80%)

C[C@]12CC[C@@H]3c4ccc(O)cc4C[C@@H](CCCCCCCCC[S+]([O-])CCCC(F)(F)C(F)(F)F)[C@H]3[C@@H]1CC[C@@H]2O (stereo partly drawn) [fulvestrant]
IC50 [1]: ≤ 25 nM
turnover of the receptor in patient samples [6]: less than 50%
ERα % degradation [2]: A (ERα % degradation ≥ 80%)
